Assay results published in patent US9751858B2, “3-heteroaroylamino-propionic acid derivatives and their use as pharmaceuticals” (SANOFI, priority 2011, dated 2017).

Target: T1, Recombinant human cathepsin A (Homo sapiens, UniProt P10619)
T1 construct: Recombinant human cathepsin A (residues 29-480, with a C-terminal 10-His tag); 10-His (C); purchased R&D Systems 1049-SE
T1 sequence (P10619 29-326 limits assumed): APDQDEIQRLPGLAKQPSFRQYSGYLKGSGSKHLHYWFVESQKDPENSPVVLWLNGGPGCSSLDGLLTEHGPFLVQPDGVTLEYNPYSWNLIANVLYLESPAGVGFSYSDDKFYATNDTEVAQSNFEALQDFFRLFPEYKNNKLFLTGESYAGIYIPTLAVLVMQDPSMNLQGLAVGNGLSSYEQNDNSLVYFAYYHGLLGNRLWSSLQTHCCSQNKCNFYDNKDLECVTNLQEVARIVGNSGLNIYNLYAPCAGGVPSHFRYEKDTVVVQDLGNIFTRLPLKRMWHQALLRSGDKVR
T1 sequence (P10619 327-480 limits assumed): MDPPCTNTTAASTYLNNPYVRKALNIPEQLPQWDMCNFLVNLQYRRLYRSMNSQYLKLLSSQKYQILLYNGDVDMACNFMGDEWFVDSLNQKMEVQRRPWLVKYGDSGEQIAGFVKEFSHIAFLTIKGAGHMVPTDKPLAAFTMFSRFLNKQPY
Experiment: Cathepsin A inhibitory activity
Assay type: biochemical
Conditions: activated recombinant human cathepsin A 833 ng/ml, Bodipy FL-labeled bradykinin 2 μM, pH 5.5, 15 min room temperature
Method in brief: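 Cathepsin A activated by cathepsin L (15 min, 37 °C, pH 6.0), then preincubated 15 min at room temperature with compound in 25 mM MES pH 5.5, 5 mM DTT. Bodipy FL-bradykinin cleavage ran 15 min at room temperature; substrate and product separated by microfluidic capillary electrophoresis, turnover from peak areas.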

Row | IC50 [µM] | Structure (SMILES)
1 | 0.35 | CCc1nc(C(=O)N[C@@H](CC(=O)O)c2ccccc2C)nn1-c1c(Cl)cccc1Cl [Example 108, (S)-3-{[1-(2,6-Dichloro-phenyl)-5-ethyl-1H-[1,2,4]triazole-3-carbonyl]-amino}-3-o-tolyl-propionic acid]
2 | > 10 | Cn1cc(NS(=O)(=O)CC2CCCCC2)c(C(=O)N[C@@H](CC(=O)O)c2ccccc2)n1 [Example 109, (S)-3-[(4-Cyclohexylmethanesulfonylamino-1-methyl-1H-pyrazole-3-carbonyl)-amino]-3-phenyl-propionic acid]
3 | 0.81 | CCCC1CCCCN1C(=O)c1cc(C(=O)N[C@@H](CC(=O)O)c2ccccc2C)nn1CC (stereo partly drawn) [Example 114, (S)-3-{[1-Ethyl-5-(2-propyl-piperidine-1-carbonyl)-1H-pyrazole-3-carbonyl]-amino}-3-o-tolyl-propionic acid]
4 | 2.5 | CCCC1CCCCN1C(=O)c1cc(C(=O)N[C@@H](CC(=O)O)c2ccc(C)cc2)nn1CC (stereo partly drawn) [Example 115, (S)-3-{[1-Ethyl-5-(2-propyl-piperidine-1-carbonyl)-1H-pyrazole-3-carbonyl]-amino}-3-p-tolyl-propionic acid]
5 | 4.56 | CCCC1CCCCN1C(=O)c1cc(C(=O)N[C@@H](CC(=O)O)c2cccc(C)c2)nn1CC (stereo partly drawn) [Example 116, (S)-3-{[1-Ethyl-5-(2-propyl-piperidine-1-carbonyl)-1H-pyrazole-3-carbonyl]-amino}-3-m-tolyl-propionic acid]
6 | 1.54 | Cc1ccccc1[C@H](CC(=O)O)NC(=O)c1cc(-c2ccccc2)n(Cc2ccc(F)cc2)n1 [Example 118, (S)-3-{[1-(4-Fluoro-benzyl)-5-phenyl-1H-pyrazole-3-carbonyl]-amino}-3-o-tolyl-propionic acid]
7 | > 10 | Cc1ccccc1[C@H](CC(=O)O)NC(=O)c1nn(C)cc1NS(=O)(=O)CC1CCCCC1 [Example 119, (S)-3-[(4-Cyclohexylmethanesulfonylamino-1-methyl-1H-pyrazole-3-carbonyl)-amino]-3-o-tolyl-propionic acid]
8 | > 10 | Cc1ccccc1[C@H](CC(=O)O)NC(=O)c1nn(C)cc1NS(=O)(=O)CCc1ccccc1 [Example 121, (S)-3-{[1-Methyl-4-(2-phenyl-ethanesulfonylamino)-1H-pyrazole-3-carbonyl]-amino}-3-o-tolyl-propionic acid]

The next lines start with the compound.

Row | Structure (SMILES) | IC50 [µM]
9 | O=C(O)C[C@H](NC(=O)CCc1nc(-c2ccccc2F)no1)c1ccccc1C(F)(F)F [Example 110, (S)-3-{3-[3-(2-Fluoro-phenyl)-[1,2,4]oxadiazol-5-yl]-propionylamino}-3-(2-trifluoromethyl-phenyl)-propionic acid] | > 10
10 | O=C(O)C[C@H](NC(=O)CCc1nc(-c2ccccc2F)no1)c1ccc(C(F)(F)F)cc1 [Example 111, (S)-3-{3-[3-(2-Fluoro-phenyl)-[1,2,4]oxadiazol-5-yl]-propionylamino}-3-(4-trifluoromethyl-phenyl)-propionic acid] | > 10
11 | O=C(O)C[C@H](NC(=O)CCc1nc(-c2ccccc2F)no1)c1cccc(Cl)c1Cl [Example 112, (S)-3-(2,3-Dichloro-phenyl)-3-{3-[3-(2-fluoro-phenyl)-[1,2,4]oxadiazol-5-yl]-propionylamino}-propionic acid] | > 10
12 | O=C(O)C[C@H](NC(=O)CCc1nc(-c2ccccc2F)no1)c1cccc(C(F)(F)F)c1 [Example 113, (S)-3-{3-[3-(2-Fluoro-phenyl)-[1,2,4]oxadiazol-5-yl]-propionylamino}-3-(3-trifluoromethyl-phenyl)-propionic acid] | > 10
13 | Cc1ccccc1[C@H](CC(=O)O)NC(=O)c1nn(C)cc1NS(=O)(=O)Cc1ccccc1 [Example 117, (S)-3-[(1-Methyl-4-phenylmethanesulfonylamino-1H-pyrazole-3-carbonyl)-amino]-3-o-tolyl-propionic acid] | > 10
14 | COc1cccc([C@H](CC(=O)O)NC(=O)c2nc(-c3ccccc3)oc2C(F)(F)F)c1OC [Example 120, (S)-3-(2,3-Dimethoxy-phenyl)-3-[(2-phenyl-5-trifluoromethyl-oxazole-4-carbonyl)-amino]-propionic acid] | 8.01
15 | O=C(O)C[C@H](NC(=O)c1nc(-c2ccccc2)oc1C(F)(F)F)c1cccc(Cl)c1Cl [Example 122, (S)-3-(2,3-Dichloro-phenyl)-3-[(2-phenyl-5-trifluoromethyl-oxazole-4-carbonyl)-amino]-propionic acid] | 1.95
16 | O=C(O)C[C@H](NC(=O)c1nc(-c2ccccc2)oc1C(F)(F)F)c1ccc(Cl)cc1Cl [Example 123, (S)-3-(2,4-Dichloro-phenyl)-3-[(2-phenyl-5-trifluoromethyl-oxazole-4-carbonyl)-amino]-propionic acid] | 14.4
17 | O=C(O)C[C@H](NC(=O)c1nc(-c2ccccc2)n(-c2ccccc2)n1)c1cccc(Cl)c1Cl [Example 124, (S)-3-(2,3-Dichloro-phenyl)-3-[(1,5-diphenyl-1H-[1,2,4]triazole-3-carbonyl)-amino]-propionic acid] | 0.0509
18 | O=C(O)C[C@H](NC(=O)c1nc(-c2ccccc2)n(-c2ccccc2)n1)c1ccc(Cl)cc1Cl [Example 125, (S)-3-(2,4-Dichloro-phenyl)-3-[(1,5-diphenyl-1H-[1,2,4]triazole-3-carbonyl)-amino]-propionic acid] | 0.241

Test system: platelet aggregation
Experiment: not given
Conditions: hypertensive animals; H. Ostrowska et al., J. Cardiovasc. Pharmacol. 45 (2005); cited from earlier work

Row | Structure (SMILES) | platelet aggregation
19 | CC[C@@H](C)[C@@H](O)[C@H](C)C(=O)[C@H](C)/C=C(\C)C[C@H](C)[C@@H]1OC(=O)[C@H]1CC [ebelactone B] | suppresses platelet aggregation
